Patent US8461117B2, “Chemical linkers and cleavable substrates and conjugates thereof” (Medarex, Inc., priority 2006, dated 2013)

Key:
[1] = cited from earlier work
786-O [2] = assay: Second in vivo study: 786-O xenografts, cytotoxins (Compounds A, F, H-J) conjugated to anti-CD70 HuMAb 2H5; set-up: species or system CB17.SCID mice; conditions: 786-O xenograft, tumors averaging 200 mm^3, single IP dose Day 0, 0.005-0.03 Toxin μmole, conjugated to CD70.1
Description: (§1) 786-O (ATCC Accession No. CRL-1932) cells were expanded in vitro using standard laboratory procedures. Male CB17.SCID mice (Taconic, Hudson, N.Y.) between 6-8 weeks of age were implanted subcutaneously in the right flank with 2.5 million 786-O in 0.2 ml of PBS/Matrigel (1:1) per mouse. Mice were weighed and measured for tumors three dimensionally using an electronic caliper twice weekly after implantation. Tumor volumes were calculated as height×width×length. Mice with tumors averaging 200 mm^3 were randomized into treatment groups. The mice were dosed intraperitoneally with PBS vehicle, cytotoxin-conjugated isotype control antibody or cytotoxin-conjugated anti-CD70 HuMAb 2H5 on Day 0. Each group contained 8 mice.

786-O [3] = assay: First in vivo study: 786-O xenografts, cytotoxins (Compounds A-G) conjugated to anti-CD70 HuMAb 2H5; set-up: species or system CB17.SCID mice; conditions: 786-O xenograft, tumors averaging 200 mm^3, single IP dose Day 0, 0.1 (some also 0.01) Toxin μmole, conjugated to CD70.1
Description: as §1, with “as height x width x length.” for “as height×width×length.”, “contained 7” for “contained 8”

## COc1c(O)c2c(c3cc(C(=O)N4CCc5c4c(O)c(OC)c4[nH]c(C(=O)N6CC7CC78C6=CC(=O)c6[nH]cc(C)c68)cc54)[nH]c13)CCN2C(N)=O (stereo not drawn) [CC-1065]
[1]; both in vitro and in experimental animals (Li et al. 1982)
  Antitumor and antimicrobial activity: potent antitumor and antimicrobial activity
[1]; experimental animals
  Toxicity in experimental animals: delayed death

## CC(C)[C@H](NC(=O)CCOCCOCCOCCOCCNC(=O)CCN1C(=O)C=CC1=O)C(=O)N[C@@H](CCCNC(N)=O)C(=O)N1CCc2c1ccc1[nH]c(C(=O)N3C[C@@H](CBr)c4c3cc(OC(=O)N3CCN(C)CC3)c3ccccc43)cc21 [Compound C]
786-O [2]
  Efficacy, descending order (mean/median tumor volume versus days past dosing, FIGS. 4-5): Compound J/Compound C>Compound H>Compound G/Compound I>Naked CD70.1

## CC(C)[C@H](NC(=O)CCOCCOCCOCCOCCNC(=O)CCN1C(=O)C=CC1=O)C(=O)N[C@@H](CCCNC(N)=O)C(=O)N1CCc2c1ccc1[nH]c(C(=O)N3C[C@@H](CBr)c4c3cc(OC(=O)N3CCN(C)CC3)c3ccccc43)cc21 [Compound D]
786-O [3]
  Efficacy, descending order (mean/median tumor volume versus days past dosing, FIGS. 1-2): Compound D>Compound A>Compound F>Compound B>Compound C>Compound E>Naked CD70.1/Compound G

## CC(C)[C@H](NCCNC(=O)CCCN1C(=O)C=CC1=O)C(=O)N[C@@H](CCCNC(N)=O)C(=O)Nc1ccc(C(=O)Nc2ccc3[nH]c(C(=O)N4C[C@@H](CBr)c5c4cc(OC(=O)N4CCN(C)CC4)c4ccccc54)cc3c2)cc1 [Compound H]
786-O [2]
  Efficacy, descending order (mean/median tumor volume versus days past dosing, FIGS. 4-5): Compound J/Compound C>Compound H>Compound G/Compound I>Naked CD70.1

## CC(C)[C@H](NCCNC(=O)CCCN1C(=O)C=CC1=O)C(=O)N[C@@H](CCCNC(N)=O)C(=O)Nc1ccc(C(=O)Nc2ccc3[nH]c(C(=O)N4C[C@@H](CCl)c5c4cc(OC(=O)N4CCN(C)CC4)c4ccccc54)cc3c2)cc1 [Compound J]
786-O [2]
  Efficacy, descending order (mean/median tumor volume versus days past dosing, FIGS. 4-5): Compound J/Compound C>Compound H>Compound G/Compound I>Naked CD70.1
